Measured values taken from patent publication EP0435693B1, “Pharmaceutical compositions containing 3-oxygermylpropionic acid polymers for inhibiting the degeneration of cells” (SANWA KAGAKU KENKYUSHO CO., LTD., priority 1989, dated 1991).

Tests used:
[1] = test system: rat's hepatocytes; test: Inhibition of GPT elution from cultivated liver cells treated with hepatocyte-damaging substances; assay type: cell-based
Description: The effect on relieving the culture damage induced by adding hepatocyte-damaging substances and SK-818 to hepatocyte culture systems was examined by measuring the activity of glutamic-pyruvic transaminase (GPT) eluates obtained by cellular disorders. How much the elution of GPT was inhibited was used as an index to the hepatoxicity-relieving effect.
The following four substances were used as the hepatocyte-damaging (hepatoxic) substances. • (a) Galactosamine - "J. Natur. Prod.", 46, 841, 1983. • (b) Calcium ionophore - "Pharmacognosy", 39, 218, 1985. • (c) Cumene hydroperoxide - "Planta Med.", 51, 50, 1985. • (d) 1-Naphthylisothiocyanate.
The extraction and culture of a single layer of rat's hepatocytes were carried out by the procedures described by Nakamura et al in "Protein, Nucleic Acid and Oxygen", Extra Number No. 24, pp. 55-74, 1981.
Single layers of rats' hepatocytes were cultured for certain periods of time:- 0 hour for a galactosamine group, 20.5 hours for calcium ionophore and cumene hydroperoxide groups, and 14.5 hours for a 1-naph isocyanate group. Afterwards, the hepatocyte-damaging substances were added to the culture media at the respective desired concentrations:- 0.35 mM for (a); 10 »m for (b), 0.5 mM for (c) and 188 »m for (d)), which were then cultured for the respective given periods of time:- 38 hours for the group (a), 1 hour for (b), 1 hour for (c) and 12 hours for (d).
SK-818 was dissolved in bovine embryo serum, and the serum solution was then added to each medium at the respective stages of culture by the following three methods; • (a) it was added to the pre-culture medium prior to the addition of the hepatocyte-damaging substance (called the pre-addition); • (b) it was added to the culture medium simultaneously with the addition of the hepatocyte-damaging substance (called the simultaneous addition); and • (c) it was added to the pre-culture and culture media (called the total addition).
The activity of the GPT eluates produced by cytotoxicity in the media was measured by a GPT measuring kit. Then, GPT reductions in % were found by the following equation: [formula] wherein A is the activity in Karmen units of GPT in a culture medium to which no hepatocyte-damaging substance is added, B is the activity in Karmen units of GPT in a culture medium to which the hepatocyte-damaging substance is added; and C is the activity in Karmen units of GPT in a culture medium to which the hepatocyte-damaging substance is added together with 3-oxygermylpropionic acid.

[2] = test system: mice; test: Acute toxicity test, per os, mice; assay type: in vivo
Description: (§1) With (a) the 3-oxygermylpropionic acid according to this invention (hereinafter called SK-818) and (b) the composition of Preparation Ex. 1, SD rats and mice were subjected to acute and subacute (chronic) toxicity tests in conventional manner. (Groups of animals, 8-10 per group, were used for experimentation).

[3] = test system: ddy masculine mouse; test: Amnesia induced by carbon dioxide, passive avoidance in bright/dark box; assay type: in vivo; details: Group B: SK-818 + Foot Shocks + CO₂ Gas, 10.0 mg/kg/day orally from 3 days before
Procedure: A ddy masculine mouse was encaged in a […] of a testing box (comprising bright and dark chambers, each measuring 15.0 x 17.5 x 18.5 cm and provided with an inlet/outlet combination of 6.0 x 6.0 cm, and the time which it took the animal to walk into the dark chamber (the reaction potential time during acquisition, hereinafter referred to as A.T.) was then measured. From just after the animal walked into the dark chamber, foot shocks of 2.5 mA were continuously applied to the animal through a floor grid with a shock generator scrambler, made by Astech Co., Ltd., until the animal walked into the bright chamber. Immediately after the acquisition trial, the animal was encaged in a desiccator, and 15 l/min of CO₂ gas were injected into the desiccator for 40 to 45 seconds for suffocation. After the animal was removed from the desiccator, artificial aspiration was immediately tried thereon. The animal was then put back in a home cage.
After 24 hours of the acquisition trial, the animal was again encaged in the bright chamber of the testing box to measure the time which it took the animal to walk into the dark chamber (or the reaction potential time during the retention trial, hereinafter referred to as R.T.). SK-818, in the form of a mixture with feed, had been administered orally to the animal from 3 days before at a dose of 10.0 mg/kg/day.

[4] = test system: SD rats; test: Acute toxicity test, per os, rats; assay type: in vivo
Description: as §1

[5] = test system: Wistar masculine rats; test: Relief of nephrotoxicity of mercuric chloride; assay type: in vivo
Procedure: The effect of SK-818 on the impairment of kidney-function by mercuric chloride was examined, using blood-urinary nitrogen levels as an index.
Mercuric chloride was subcutaneously administered to Wistar masculine rats (seven weeks of age) 6-10 per group, at a dose of 1.2 mg/kg. From 24 hours after the administration till the lapse of 96 hours, the animals were permitted to freely drink an aqueous solution containing 2,400 ppm of SK-818 (at an average dose of 231±14 mg/kg). […]

[6] = test system: SD rats and mice; test: Acute toxicity test, general symptoms; assay type: in vivo
Description: as §1
Between (a) SK-818 and (b) the composition of Preparation Ex. 1 there was no significant difference in acute toxicity.

## 3-oxygermylpropionic acid [SK-818]
[1]; 1-naphthylisothiocynate 188 »m, simultaneous addition
  GPT reductions: 79%
[1]; 1-naphthylisothiocynate 188 »m, total addition
  GPT reductions: 67%
[1]; calcium ionophore 10 »m, simultaneous addition
  GPT reductions: 27%
[1]; calcium ionophore 10 »m, total addition
  GPT reductions: 36%
[1]; cumene hydroperoxide 0.5 mM, simultaneous addition
  GPT reductions: 63%
[1]; cumene hydroperoxide 0.5 mM, total addition
  GPT reductions: 42%
[1]; galactosamine 0.35 mM, simultaneous addition
  GPT reductions: 29%
[1]; only pre-addition, before the hepatocyte-damaging substance
  GPT reduction: No GPT reduction
[2]; female
  LD50: 5,800 or more mg/kg
[2]; male
  LD50: 5,600 or more mg/kg
[3]
  A.T. (reaction potential time during acquisition): 48.5 ± 9.1 s
[3]; 24 hours after acquisition
  R.T. (reaction potential time during the retention trial): 276.5 ± 19.3 s
[4]; female
  LD50: 7,050 or more mg/kg
[4]; male
  LD50: 7,700 or more mg/kg
[5]; 0 hour, mercuric chloride 1.2 mg/kg s.c.
  Blood-urinary nitrogen: 15.1 ± 0.4 mg/dL
[5]; 24 hours after mercuric chloride, drinking of 2400ppm aqueous solution starts at 24 hours
  Blood-urinary nitrogen: 31.9 ± 1.3 mg/dL
[5]; 48 hours after mercuric chloride, 2400ppm aqueous solution
  Blood-urinary nitrogen: 50.6 ± 9.8 mg/dL
[5]; 72 hours after mercuric chloride, 2400ppm aqueous solution
  Blood-urinary nitrogen: 45.9 ± 13.8 mg/dL
[5]; 92 hours after mercuric chloride, 2400ppm aqueous solution
  Blood-urinary nitrogen: 30.9 ± 9.4 mg/dL
[6]
  general symptoms: general symptoms of tranquilization, diarrhoea, vomiting and typhlectasis
